Assay results as given in PubChem BioAssay (NCI).
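48-hour exposure; five concentrations; linearly interpolated endpoints. At the TGI there is no net growth.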

Tests used:
Assay in all cases: inhibition of tumour cell growth, NCI panel, 48 h
OVCAR-8 ovarian = system: OVCAR-8 ovarian
MALME-3M melanoma = system: MALME-3M melanoma
OVCAR-3 ovarian = system: OVCAR-3 ovarian
UACC-62 melanoma = system: UACC-62 melanoma
K-562 leukemia = system: K-562 leukemia
SW-620 colon = system: SW-620 colon
SN12C renal = system: SN12C renal
HOP-92 NSCLC = system: HOP-92 NSCLC
UO-31 renal = system: UO-31 renal
RXF 393 renal = system: RXF 393 renal
KM12 colon = system: KM12 colon
TK-10 renal = system: TK-10 renal
ACHN renal = system: ACHN renal
HT29 colon = system: HT29 colon
HCC-2998 colon = system: HCC-2998 colon
HOP-62 NSCLC = system: HOP-62 NSCLC
EKVX NSCLC = system: EKVX NSCLC
SF-539 CNS = system: SF-539 CNS
RPMI-8226 leukemia = system: RPMI-8226 leukemia

SMILES	TGI (OVCAR-8 ovarian) [µM]	TGI (MALME-3M melanoma) [µM]	TGI (OVCAR-3 ovarian) [µM]	TGI (UACC-62 melanoma) [µM]	TGI (K-562 leukemia) [µM]	TGI (SW-620 colon) [µM]	TGI (SN12C renal) [µM]	TGI (HOP-92 NSCLC) [µM]	TGI (UO-31 renal) [µM]	TGI (RXF 393 renal) [µM]	TGI (KM12 colon) [µM]	TGI (TK-10 renal) [µM]	TGI (ACHN renal) [µM]	TGI (HT29 colon) [µM]	TGI (HCC-2998 colon) [µM]	TGI (HOP-62 NSCLC) [µM]	TGI (EKVX NSCLC) [µM]	TGI (SF-539 CNS) [µM]	TGI (RPMI-8226 leukemia) [µM]
c1cncc(CSc2ncnc3nc[nH]c23)c1	> 100	> 100	> 100	> 100	> 100	> 100	> 100	> 100	> 100	> 100	> 100	> 100	> 100	> 100	> 100	> 100	> 100		
C/C(N)=N/OCc1nc(C)no1	> 100		> 100	> 100	> 100	> 100	> 100		> 100	> 100	> 100	> 100	> 100	> 100	> 100	> 100	> 100	> 100	> 100
C=C[C@]1(O[Si](C)(C)C)C[C@@]2(C(=O)OCC)C(O)C(=O)N3CCc4cc(OC)c(OC)cc4[C@]312 (some centres not stated)	> 100	> 100	> 100	> 100	> 100	> 100	> 100	> 100	> 100	> 100	> 100	> 100	> 100	> 100		> 100	> 100	> 100	> 100
BrCc1ccc(CBr)c2c1-c1c(CBr)ccc3ccc(CBr)c-2c13	> 100	> 100	> 100	> 100	> 100	> 100	> 100	> 100	> 100		> 100	> 100	> 100	> 100	> 100	> 100	> 100	> 100	> 100
O=[N+]([O-])/C=C/c1cn(CCCCCCCCCCCCn2cc(/C=C/[N+](=O)[O-])c3ccccc32)c2ccccc12	> 100	> 100	> 100	> 100		> 100	> 100	> 100	> 100		> 100	> 100	> 100	> 100	> 100	> 100	> 100	> 100	> 100
COC(=O)[C@@]1(NC(=O)C(CC(=O)OC(C)(C)C)NC(=O)OC(C)(C)C)C[C@H]1C (some centres not stated)	> 100	> 100	> 100	> 100	> 100	> 100	> 100		> 100	> 100	> 100	> 100	> 100	> 100	> 100	> 100	> 100	> 100	> 100
O=C1/C(=C/c2cccs2)NC(=S)N1CN1CCCCC1	> 100	> 100	> 100	> 100	> 100	> 100	> 100	> 100	> 100		> 100	> 100	> 100	> 100		> 100	> 100		> 100
C=C(CCC=C(C)C)C1CC=C(C)CC1 (configuration not stated)	> 100	> 100	81.2	> 100		53.6	41.3		30.6	31.6	52.6	> 100	33.4			37.4	92.7	68.2	
C/C(=N\NC(=S)Nc1ccc([N+](=O)[O-])cc1)c1nc2ncccc2[nH]1	1.71	18.5	17.7		> 100	> 100	56.6	18	1.35		> 100	4.56		2.04	10.8	4.33	3.2	1.37	9.3
c1cc(CN2CCNCCNCCNCC2)cc(CN2CCNCCNCCNCC2)c1	> 100	> 100	> 100	> 100	> 100	> 100	> 100		> 100		> 100	> 100	> 100	> 100	> 100	> 100	> 100	> 100	> 100
CNC(=O)N1N[C@H](c2ccccc2)[C@@H]1c1ccccc1	29.9	72.6	36.7	26.8	54.5	77.7	62.7	91.2	74.4	36.6	45.2	> 100	> 100	32.3	68.8	> 100	85.6	33.3	
O=c1cc(CNC2CC3CCC2C3)[nH]c(=O)[nH]1 (configuration not stated)	> 100	> 100	> 100	> 100	> 100	> 100	> 100		> 100	> 100	> 100	> 100	> 100	> 100	> 100	> 100	> 100	> 100	> 100
CC1CC(N2CCOCC2)=Nc2ccccc2N1Cc1ccccc1 (configuration not stated)	> 100	63.1	> 100	> 100	> 100	> 100	> 100		> 100	63.4	> 100	> 100	> 100	> 100		> 100	> 100		> 100
O=C(O)Cc1cccc2c(=O)c3cccc([N+](=O)[O-])c3[nH]c12	> 100	97.6	> 100	76	> 100	> 100	> 100	> 100	> 100		> 100	> 100	> 100	> 100	> 100	> 100		78.1	> 100
CSc1c(C#N)c(S)n(-c2ccc(Cl)cc2)c(=O)c1C#N	> 100	> 100	> 100	> 100	> 100	> 100	> 100		95.8	> 100	> 100	> 100		> 100	> 100		> 100	> 100	> 100
CCC(C)N1CN(c2ccccc2)C2(CCN(CCCSc3ccc(F)cc3)CC2)C1=O (configuration not stated)	21.5	15.8	7.25	17.5	6.26	17.3	> 100		6.61		15.2	11.2	9.76	8.3	4.22	4.74	10.4	6.32	5.72
C=CCNC(=O)CN(CC(=O)O)C1CCCCC1N(CC(=O)O)CC(=O)O (configuration not stated)	> 100	> 100	> 100	> 100	> 100	> 100	> 100	> 100	> 100	> 100	> 100	> 100	> 100	> 100	> 100	> 100		> 100	> 100
CN1CCC/C1=C1/C(=O)N(c2ccccc2)N=C1c1ccc[nH]1	> 100	> 100	> 100	> 100	> 100	> 100	> 100		> 100	> 100	> 100	> 100	> 100		> 100	> 100	> 100		> 100
COc1cc(C(=O)O)c(-c2cc3c(cc2C=O)OCO3)c(OC)c1OC	> 10	> 10	> 10	> 10	> 10	> 10	> 10	> 10			> 10	> 10	> 10	> 10	> 10	> 10		> 10	> 10
CNC(=O)CCCNC(=O)CCCC(=O)OC	> 100	> 100	> 100	> 100	> 100	> 100	> 100	> 100	> 100		> 100	> 100	> 100	> 100	> 100	> 100	> 100	> 100	> 100
CCC(=O)C(CCN1CCC(N2C(=O)C(CCC#N)c3ccccc32)CC1)(c1ccccc1)c1ccccc1 (configuration not stated)	23.6	24.8	22.9	32.6	23.1	24	34		21.4	16.2	28	31.2	43.8	12.9	25.2	32.2		34.5	21.8
O=C1CSC(c2ccccc2O)N1c1ccc(Oc2ccc(Cl)cc2)c(Cl)c1 (configuration not stated)	74.6	30.2	62.4	34.3	> 100	> 100	39.5	39.1	20.7		35.7	> 100	94	37.3	40.4	42.3	45.9	32.9	89.1
C[C@@]1(OC(=O)c2cc([N+](=O)[O-])cc([N+](=O)[O-])c2)C[C@@H]2CCCC[C@@H]21	> 100	> 100		> 100	> 100	> 100	> 100		> 100		> 100	> 100	> 100	> 100	> 100	> 100	> 100	> 100	> 100
COc1ccc(NC(=O)C(=O)Cc2nc3ccc(C(=O)c4ccccc4)cc3[nH]c2=O)c([N+](=O)[O-])c1	49	> 100	> 100	78.5		79.8	> 100	74.4	67.6	> 100	64	> 100	> 100	35.9	> 100	> 100	> 100	> 100	
Cc1ccc(/C=C2\Cc3cc(C)c(C)cc3C2=O)c(C(=O)O)c1	> 100	> 100	> 100	> 100	> 100	> 100	> 100		> 100	> 100	> 100	> 100	> 100	> 100	> 100	> 100	> 100	74.7	> 100
COc1ccc(-n2c(C)nc3ccc(NC4OC(CO)C(O)C(O)C4O)cc3c2=O)cc1 (configuration not stated)	> 100	> 100	> 100	> 100	> 100	> 100	> 100		> 100	> 100	> 100	> 100	> 100	> 100	> 100	> 100	> 100		> 100
Cc1ccc(/N=N/C(=NNC(=O)c2ccc(C)cc2)c2ccc(N(C)C)cc2)cc1	> 100		54.2	23.4	> 100	> 100	68.5	80.2	68		37	> 100	92.4	91.3	73.2		> 100	> 100	70.5
